# From US11370769B2, “TRPC5 inhibitors and methods of using same” (BOARD OF REGENTS OF THE UNIVERSITY OF NEBRASKA, priority 2017, dated 2022)
# Tests used:
# [1] = molecular target: T1, TRPC4 (Homo sapiens, UniProt Q9UBN4); test: HEK293 whole-cell patch clamp recording, TRPC4 inhibition assay; format: cell-based; conditions: 30 μM, HEK cells expressing TRPC4, CCh 100 μM
# T1 construct: expressed in transfected cells; host or cells: HEK293
# T1 sequence (Q9UBN4 1-977): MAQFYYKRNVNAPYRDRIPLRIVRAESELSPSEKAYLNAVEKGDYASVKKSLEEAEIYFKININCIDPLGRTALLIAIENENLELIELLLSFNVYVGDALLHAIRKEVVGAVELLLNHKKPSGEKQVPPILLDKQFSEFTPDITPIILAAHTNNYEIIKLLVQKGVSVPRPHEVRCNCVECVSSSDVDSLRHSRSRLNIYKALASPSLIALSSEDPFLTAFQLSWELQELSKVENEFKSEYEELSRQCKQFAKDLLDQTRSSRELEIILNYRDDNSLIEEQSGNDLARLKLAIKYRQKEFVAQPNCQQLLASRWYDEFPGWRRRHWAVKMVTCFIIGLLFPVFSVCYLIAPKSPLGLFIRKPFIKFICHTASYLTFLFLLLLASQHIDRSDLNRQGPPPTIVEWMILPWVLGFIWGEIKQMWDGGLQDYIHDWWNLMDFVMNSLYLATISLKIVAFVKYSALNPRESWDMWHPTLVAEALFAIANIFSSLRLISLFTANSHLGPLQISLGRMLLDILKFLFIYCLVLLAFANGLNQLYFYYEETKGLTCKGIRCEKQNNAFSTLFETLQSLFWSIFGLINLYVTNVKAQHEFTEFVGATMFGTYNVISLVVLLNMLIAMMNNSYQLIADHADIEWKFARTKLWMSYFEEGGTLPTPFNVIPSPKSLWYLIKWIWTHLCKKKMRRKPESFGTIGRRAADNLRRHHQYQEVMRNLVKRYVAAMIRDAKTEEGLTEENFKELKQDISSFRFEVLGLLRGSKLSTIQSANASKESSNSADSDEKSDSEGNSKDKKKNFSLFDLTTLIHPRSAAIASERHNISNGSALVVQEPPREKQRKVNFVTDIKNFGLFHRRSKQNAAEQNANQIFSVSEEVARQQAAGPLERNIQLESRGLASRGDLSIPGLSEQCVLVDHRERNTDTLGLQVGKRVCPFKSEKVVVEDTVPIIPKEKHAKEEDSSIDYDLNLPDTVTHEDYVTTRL
# Experimental: TRPC4, TRPC5, and TRPC6 inhibition assay: HEK293 whole-cell recordings Whole-cell patch clamp recording was performed 16 h after transfection. The bath solution contained (in mM): 140 NaCl, 5 KCl, 10 HEPES, 2 MgCl2, 2 CaCl2, 10 glucose with pH7.4 adjusted with NaOH. The intracellular solution contained (in mM): 140 KCl, 5 EGTA, 10 HEPES, 2 MgCl2 with pH7.4 adjusted with KOH. The patch pipettes were made using a two-step-protocol (P-97, Sutter Instrument). The pipette resistance was maintained between 4 to 8 MΩ. Once the whole-cell configuration was achieved, cells were clamped at a holding potential of −60 mV, and given a 50 ms ramp stimulation from −100 mV to +100 mV in every 5 s. All currents were filtered at 2 KHz (Axopatch 200B amplifier, Axon Instruments, Union City, Calif.) and digitized at 10 KHz for whole-cell recordings using Axon pCLAMP 10.4. Data were then analyzed using Clampfit 10.4 (Molecular Devices).
# HEK293 cell culture and transfection: Transfection of HEK293 cells was carried out using Plus reagent (Invitrogen) and Lipofectamine (Invitrogen) according to standard protocols. For heterologous expression of TRP channels in HEK293 cells, 1 μg of TRPC5-GFP, TRPC6-GFP or TRPC4-GFP plasmids were used to transfect HEK293 cells in a 3.5 cm petri dish where cells were allowed to grow to 80% confluence. Electrophysiology was carried out after 16 h incubation.
# [2] = tested on: podocytes; test: ROS assay in wild-type podocytes treated with AngII; format: cell-based, mouse; conditions: WT podocytes, AngII 10 μM, 30 μM compound, 3 hours
# Experimental: Podocyte culture and viral transduction: Immortalized mouse podocytes were cultured as previously described (10, 11). Podocyte viral transduction was performed using lentivirus as previously described (10, 11). Briefly, lentivirus production was carried out in HEK293T cells at 60% confluence, and viral particles were collected two days after transfection and purified by centrifugation at 1,000 rcf for 5 min. Purified lentivirus was frozen at −80° C. until further use. Podocytes were transduced with lentivirus after 7 days of differentiation, and assays were performed 5 days after viral transduction.
# ROS and cell viability assays: For ROS experiment in FIG. 4A, mature podocytes were cultured as previously described. Cells were incubated with CellRox Deep Red reagent (ThermoFisher) for 30 min at 37° C. Then cells were treated with DMSO, 10 μM angiotensin II, 10 μM angiotensin II with 30 μM AC1903, or 10 μM angiotensin II with 30 μM N-acetyl-L-cysteine (NAC) for 3 hours at 37° C. Cells were washed with PBS twice and fluorescence images were observed using Olympus IX71 microscopy. Fluorescence intensities were then analyzed using ImageJ software.
structure (smiles),measurement,setting,value
c1ccc(Cn2c(NCc3ccco3)nc3ccccc32)cc1 [AC1903],block of carbachol (CCh)-induced TRPC4 current,[1],failed to block
same,AngII-induced ROS,[2],blocked
